The source of these data is patent US20200031811A1, “SUBSTITUTED MONO- AND POLYAZANAPHTHALENE DERIVATIVES AND THEIR USE” (Basilea Pharmaceutica International AG, priority 2015, published 2020).

Experiment [1] concerns human pancreatic cancer cell line MiaPaCa2 (ATCC CRL-1420). Description: Cell growth assay (CellTiterGlo, 72 hours). The class given is cell-based. To be noted: for IC50: MIA PaCa-2, MiaPaCa2 cells, 72 hours, read-out: IC50 MiaPaCa; for inhibition at 100 µM: MIA PaCa-2, at 100 μM, read-out: Inhibition of MiaPaCa growth at indicated concentration. As to the method:
The inhibition of cell growth by the compounds was tested by exposing the human pancreatic cancer cell line MiaPaCa2 (ATCC CRL-1420) to the compounds. The assay was performed in 384 well clear bottom white microtiter plates (Greiner #781098). Each well was seeded with 10^3 cells in 20 μl of Dulbecco's modified Eagle's medium (Sigma D6796) supplied with 10% fetal calf scrum (Sigma F7524), 2.5% horse serum (Sigma H0146), 1% Penicillin-Streptomycin (Sigma P0781), 1% MEM nonessential amino acid solution 100× (Sigma M71459) and 1% 200 mM L-Glutamine (Sigma G7513) culture medium. After overnight incubation at 37° C. in 5% CO2 the compounds were added in the following concentrations: 100, 50, 20, 10, 5, 2, 1, 0.5, 0.2 and 0.1 μM. Each compound concentration was tested in quadruplicate. The incubation was then continued for 72 hours. After 72 hours the growth of the cells was assessed by the addition of the CellTiterGlo reagent (Promega G9242) as instructed by the provider. The luminescent signal was recorded on a SpectraMax M2 microplate reader. The signal obtained in wells containing cells cultivated in the absence of compound was set to 100% growth after subtracting the signal obtained in medium only wells. The % growth in each well was calculated by subtracting the medium only value and dividing through the 100% growth value. The IC50 for cell growth, the concentration of compound at which cell growth was reduced to 50%, was calculated with the GraFit6 software (Erythacus software).

Another experiment concerns the target T1, MNK1 (Homo sapiens, UniProt Q9BUB5).
T1 construct: purchased Life Technologies or Carna Biosciences PV6023 or 02-145; host or cells: baculovirus infected insect cells
Description: MNK inhibition assay (Z-Lyte kinase assay, Ser/Thr 7 peptide). The class given is biochemical. To be noted: for IC50: recombinant GST-MNK1, 3 hours at 31° C. From the text:
For the measurement of the activity of the MNK1 kinase the Z-Lyte kinase assay system was used. The kinase activity of MNK1 can be quantified with the Z-Lyte kinase assay kit Ser/Thr 7 peptide (Life Technologies PV3180). The kit was utilized according to the instructions of the provider. A recombinant GST-MNK1 fusion protein produced in and purified from baculovirus infected insect cells was used as enzyme source (GST-MNK1 Life Technologies PV6023 or Carna Biosciences 02-145). It was verified that both sources of the MNK1 enzyme gave similar IC50 values with several compounds. The MNK1 enzyme assay was performed in 384 well round bottom black microtiter plates (Corning 3676). The kinase reaction was performed for 3 hours at 31° C. As instructed by the provider of the kit the amount of enzyme was chosen such that ˜30% of the substrate peptide was phosphorylated in control wells containing buffer only. The MNK1 inhibiting activity of compounds was tested by adding the compounds to the kinase reaction at a concentration of 10000, 5000, 2000, 1000, 500, 200, 100, 50 nM. Compounds with strong MNK1 inhibition were tested at 20, 10, 5, 2, 1 and 0.5 nM in addition. Each compound concentration was tested at least in duplicate. The % phosphorylation of the substrate peptide at each compound concentration was calculated as described in the assay manual. The fluorescent signals were recordes on Biotek Cytation 3 microplate reader. The IC50, the concentration that reduced substrate phosphorylation by 50% if compared to buffer only wells, was calculated with the Grafit 6 software (Erythacus software).

T1 sequence (Q9BUB5 whole entry): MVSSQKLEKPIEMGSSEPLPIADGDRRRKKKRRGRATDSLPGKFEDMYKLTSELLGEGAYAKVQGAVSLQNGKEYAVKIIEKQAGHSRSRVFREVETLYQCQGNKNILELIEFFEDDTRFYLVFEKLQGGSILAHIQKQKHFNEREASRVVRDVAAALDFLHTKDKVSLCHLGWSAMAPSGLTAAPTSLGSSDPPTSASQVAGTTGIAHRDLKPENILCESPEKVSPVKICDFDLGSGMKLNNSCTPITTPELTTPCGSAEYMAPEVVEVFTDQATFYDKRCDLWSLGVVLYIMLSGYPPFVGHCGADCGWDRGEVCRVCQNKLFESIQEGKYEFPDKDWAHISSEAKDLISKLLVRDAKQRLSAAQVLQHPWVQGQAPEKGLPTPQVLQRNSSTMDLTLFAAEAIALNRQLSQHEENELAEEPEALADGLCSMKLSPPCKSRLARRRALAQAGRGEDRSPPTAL

What is called IC50 is the concentration needed to halve the response being measured. As for `Nc1ncc(-c2cccs2)c2cc(CN3CCC(N)CC3)cc(Cl)c12` [Example 287], the results for the IC50 (in experiment [1]; on MNK1) were 4740 nM and 142 nM, respectively.
Take `N[C@H]1CC[C@H](Nc2ccc3cncc(-c4cc5ccccc5o4)c3n2)CC1` [Example 304, trans-N4-[8-(benzofuran-2-yl)-1,6-naphthyridin-2-yl]cyclohexane-1,4-diamine]: the figures for the IC50 (in experiment [1]; on MNK1) were 1960 nM and 10 nM, respectively.
The matching figures for `NC1CCN(Cc2ccc3cncc(-c4cc5ccccc5[nH]4)c3c2)CC1` [Example 6]: 6050 nM and 917 nM.
The like results for `Nc1ccc(Nc2ccc3cncc(-c4cc5ccccc5o4)c3c2)cn1` [Example 138, N5-[4-(Benzofuran-2-yl)-6-isoquinolyl]pyridine-2,5-diamine] were, in that order, 12100 nM and 1600 nM.
The like results for `NC1CCN(Cc2ccc3cncc(-c4ccncc4)c3c2)CC1` [Example 13] were, in that order, 24300 nM and 285 nM.
As for `NCc1ccc(NCc2ccc3cncc(-c4cc5ccccc5o4)c3c2)cc1` [Example 52], the IC50 came out at 14100 nM in experiment [1] and 163 nM on MNK1.
The like results for `NC1CCN(Cc2cc3c(-c4cc5ccccc5o4)cncc3cc2F)CC1` [Example 249] were, in that order, 7860 nM and 44 nM.
The matching figures for `Cn1nccc1NCc1ccc2cncc(-c3cc4ccccc4o3)c2c1` [Example 101]: 19000 nM and 180 nM.
The like results for `CC(=O)c1ccc(-c2cncc3ccc(CN4CCC(N)CC4)cc23)cc1` [Example 185] were, in that order, 22000 nM and 849 nM.
On to `N[C@H]1CC[C@H](Oc2cc(Cl)c3cncc(-c4ccccc4)c3c2)CC1` [Example 311], for which the IC50 in experiment [1] worked out at 5760 nM; on MNK1, 105 nM.
The matching figures for `c1ccc2oc(-c3cncc4ccc(CNc5ccncn5)cc34)cc2c1` [Example 128]: 15800 nM and 84 nM.
Turning to `NCCCOCc1ccc2c(N)ncc(-c3ccc(NC(=O)Nc4ccccc4)cc3)c2c1` [Example 112, 1-[4-[1-Amino-6-(3-aminopropoxymethyl)-4-isoquinolyl]phenyl]-3-phenyl-urea], in experiment [1], the IC50 is 43800 nM. The inhibition at 1 µM at MNK1 (at 1 μM, read-out: Inhibition of MNK1 activity at indicated concentration) stood at 19%.
As to `Nc1ccc[n+](Cc2ccc3cncc(-c4cc5ccccc5o4)c3c2)c1` [Example 56], the inhibition at 100 µM in experiment [1] was 85%. The IC50 on MNK1 is 143 nM.
As to `c1ccc2oc(-c3cncc4ccc(NCc5ccncc5)cc34)cc2c1` [Example 147, 4-(Benzofuran-2-yl)-N-(4-pyridylmethyl)isoquinolin-6-amine], the IC50 in experiment [1] is 7140 nM; on MNK1, 92 nM.
The like results for `NC1CCN(Cc2cc3c(-c4ccccc4)cncc3cc2O)CC1` [Example 265, 6-[(4-Amino-1-piperidyl)methyl]-4-phenyl-isoquinolin-7-ol] were, in that order, 21900 nM and 308 nM.
The like results for `Nc1cccc(-c2cncc3ccc(CN4CCC(N)CC4)cc23)c1` [Example 3] were, in that order, 20600 nM and 847 nM.
Turning to `CN(C)CCCNCc1ccc2cncc(-c3ccc(O)cc3)c2c1` [Example 43, 4-[6-[[3-(Dimethylamino)propylamino]methyl]-4-isoquinolyl]phenol], the IC50 was 32200 nM in experiment [1] and 219 nM on MNK1.
The like results for `Cc1cc(NC(=O)Nc2ccc(-c3cncc4ccc(CN5CCC(N)CC5)cc34)cc2)on1` [Example 120, 1-[4-[6-[(4-Amino-1-piperidyl)methyl]-4-isoquinolyl]phenyl]-3-(3-methylisoxazol-5-yl)urea] were, in that order, 18600 nM and 683 nM.
The like results for `Oc1cnccc1NCc1ccc2cncc(-c3cc4ccccc4o3)c2c1` [Example 73] were, in that order, 15000 nM and 5 nM.
The matching figures for `CN(c1ccc2cncc(-c3cc4ccccc4o3)c2c1)C1CCC(N)CC1` (centres unmarked) [Example 210]: 1760 nM and 22 nM.
Consider `Nc1ncc(-c2ccco2)c2cc(CN3CCC(N)CC3)cc(Cl)c12` [Example 286], for which the IC50 in experiment [1] came out at 1640 nM; on MNK1, 27 nM.
The matching figures for `Nc1cc[n+](Cc2ccc3cncc(-c4cc5ccccc5o4)c3c2)cc1` [Example 55]: 1830 nM and 14 nM.
In the case of `N[C@H]1CC[C@H](NC(=O)c2ccc3cncc(-c4cc5ccccc5o4)c3c2)CC1` [Example 160, Trans-N-(4-aminocyclohexyl)-4-(benzofuran-2-yl)isoquinoline-6-carboxamide], the figures for the IC50 (in experiment [1]; on MNK1) were 12200 nM and 284 nM, respectively.
On to `c1ccc2oc(-c3cncc4ccc(CNc5ccncc5)cc34)cc2c1` [Example 61], for which the IC50 in experiment [1] came to 5250 nM; at MNK1, 3 nM.
For `N[C@H]1CC[C@H](Oc2cc(Cl)c3cncc(-c4cc5ccccc5o4)c3c2)CC1` [Example 310], the IC50 was found to be 2370 nM in experiment [1] and 135 nM on MNK1.
Turning to `NC1CCN(Cc2ccc3cncc(-c4ccc5ccccc5n4)c3c2)CC1` [Example 176, 1-[[4-(2-Quinolyl)-6-isoquinolyl]methyl]piperidin-4-amine], the IC50 in experiment [1] turned out to be 29000 nM; on MNK1, 3700 nM.
As to `FC(F)(F)c1cc(NCc2ccc3cncc(-c4cc5ccccc5o4)c3c2)ccn1` [Example 64], the half-maximal inhibitory concentration (IC50) in experiment [1] stood at 14800 nM. For the same compound, the inhibition at 10 µM at MNK1 (at 10 μM, read-out: Inhibition of MNK1 activity at indicated concentration) was 41%.
Take `c1ccc2oc(-c3cncc4ccc(CN5CCCCC5)cc34)cc2c1` [Example 294]: the IC50 in experiment [1] was 35300 nM; on MNK1, 1520 nM.
The matching figures for `CC(C)Oc1cc(CN2CCC(N)CC2)cc2c(-c3cc4ccccc4o3)cncc12` [Example 283, 1-[[4-(benzofuran-2-yl)-8-isopropoxy-6-isoquinolyl]methyl]piperidin-4-amine]: 2550 nM and 750 nM.
As for `Oc1ccc(-c2cncc3ccc(CNC4CCNCC4)cc23)cc1` [Example 40], the inhibition at 100 µM in experiment [1] was determined as 48%. In addition, at MNK1, the IC50 was determined as 263 nM.
Turning to `NCCCNC(=O)c1ccc2cncc(-c3cc4ccccc4o3)c2n1` [Example 103, N-(3-aminopropyl)-8-(benzofuran-2-yl)-1,6-naphthyridine-2-carboxamide], the IC50 in experiment [1] is 4120 nM; on MNK1, 88 nM.
For `NC1CCN(Cc2ccc3cncc(-c4ccccc4)c3n2)CC1` [Example 299, 1-[(8-Phenyl-1,6-naphthyridin-2-yl)methyl]piperidin-4-amine], in experiment [1], the inhibition at 100 µM is 85%. For the same compound, the IC50 at MNK1 amounted to 237 nM.
Turning to `NCCCOCc1ccc2c(N)ncc(-c3ccc(Cl)cc3)c2c1` [Example 110], the values for the IC50 (in experiment [1]; on MNK1) were 11300 nM and 395 nM, respectively.
The matching figures for `Nc1ccc(NCc2ccc3cncc(-c4cc5ccccc5o4)c3c2)cc1` [Example 50]: 5590 nM and 384 nM.
In the case of `NC1CCN(Cc2ccc3nncc(-c4ccccc4)c3c2)CC1` [Example 84], in experiment [1], the inhibition at 100 µM came to 33%. The IC50 at MNK1 turned out to be 3730 nM.
As for `NC1CCN(Cc2ccc3cncc(-c4ccc5occc5c4)c3c2)CC1` [Example 172], the figures for the IC50 (in experiment [1]; on MNK1) were 11900 nM and 270 nM, respectively.
Turning to `NC1CCN(Cc2ccc3cncc(-c4ccco4)c3c2)CC1` [Example 177, 1-[[4-(2-Furyl)-6-isoquinolyl]methyl]piperidin-4-amine], the IC50 in experiment [1] was 3650 nM; on MNK1, 125 nM.
